Experimental data taken from patent US20040127501A1, “Therapeutic agents useful for treating pain” (priority 2002, published 2004).

Target: T1, mGluR5 (Rattus norvegicus, UniProt P31424)
T1 construct: The procedure allows the expression of the mGluR5 receptor by astrocytes; endogenous in cells; host or cells: secondary astrocyte cultures from embryonic (E18) Sprague-Dawley cortex, EGF-treated
Test: mGluR5 calcium mobilization flux assay in primary astrocytes (Fluo-4, Fluorometric Imaging Plate reader)
Type: cell-based, rat (Sprague-Dawley)
Settings: astrocytes expressing mGluR5; calcium mobilization flux with glutamate (final 10 mM); mean of 5 experiments
Protocol: Cell cultures: Primary glial cultures were prepared from cortices of Sprague-Dawley 18 days old embryos. The cortices were dissected and then dissociated by trituration. The resulting cell homogenate was plated onto poly-D-lysine precoated T175 flasks (BIOCOAT, commercially available from Becton Dickinson and Company Inc. of Franklin Lakes, N.J.) in Dulbecco's Modified Eagle's Medium (“DMEM,” pH 7.4), buffered with 25 mM HEPES, and supplemented with 15% fetal calf serum (“FCS,” commercially available from Hyclone Laboratories Inc. of Omaha, Nebr.), and incubated at 37° C. and 5% CO2. After 24 hours, FCS supplementation was reduced to 10%. […]
Assay Protocol: After 3-5 days incubation with EGF, the astrocytes were washed with 127 mM NaCl, 5 mM KCl, 2 mM MgCl2, […] NaH2PO4, 2 mM CaCl2, 5 mM NaHCO3, 8 mM HEPES, 10 mM Glucose at pH 7.4 (“Assay Buffer”) and loaded with the dye Fluo-4 (commercially available from Molecular Probes Inc. of Eugene, Oreg.) using 0.1 mL of Assay Buffer containing Fluo-4 ([…]). […] The plates containing the astrocytes were then transferred to a Fluorometric Imaging Plate reader (commercially available from Molecular Devices Corporation of Sunnyvale, Calif.) for the assessment of calcium mobilization flux in the presence of glutamate and in the presence or absence of antagonist. […] In each experiment each data point was determined two times.

T1 sequence (P31424 21-1203): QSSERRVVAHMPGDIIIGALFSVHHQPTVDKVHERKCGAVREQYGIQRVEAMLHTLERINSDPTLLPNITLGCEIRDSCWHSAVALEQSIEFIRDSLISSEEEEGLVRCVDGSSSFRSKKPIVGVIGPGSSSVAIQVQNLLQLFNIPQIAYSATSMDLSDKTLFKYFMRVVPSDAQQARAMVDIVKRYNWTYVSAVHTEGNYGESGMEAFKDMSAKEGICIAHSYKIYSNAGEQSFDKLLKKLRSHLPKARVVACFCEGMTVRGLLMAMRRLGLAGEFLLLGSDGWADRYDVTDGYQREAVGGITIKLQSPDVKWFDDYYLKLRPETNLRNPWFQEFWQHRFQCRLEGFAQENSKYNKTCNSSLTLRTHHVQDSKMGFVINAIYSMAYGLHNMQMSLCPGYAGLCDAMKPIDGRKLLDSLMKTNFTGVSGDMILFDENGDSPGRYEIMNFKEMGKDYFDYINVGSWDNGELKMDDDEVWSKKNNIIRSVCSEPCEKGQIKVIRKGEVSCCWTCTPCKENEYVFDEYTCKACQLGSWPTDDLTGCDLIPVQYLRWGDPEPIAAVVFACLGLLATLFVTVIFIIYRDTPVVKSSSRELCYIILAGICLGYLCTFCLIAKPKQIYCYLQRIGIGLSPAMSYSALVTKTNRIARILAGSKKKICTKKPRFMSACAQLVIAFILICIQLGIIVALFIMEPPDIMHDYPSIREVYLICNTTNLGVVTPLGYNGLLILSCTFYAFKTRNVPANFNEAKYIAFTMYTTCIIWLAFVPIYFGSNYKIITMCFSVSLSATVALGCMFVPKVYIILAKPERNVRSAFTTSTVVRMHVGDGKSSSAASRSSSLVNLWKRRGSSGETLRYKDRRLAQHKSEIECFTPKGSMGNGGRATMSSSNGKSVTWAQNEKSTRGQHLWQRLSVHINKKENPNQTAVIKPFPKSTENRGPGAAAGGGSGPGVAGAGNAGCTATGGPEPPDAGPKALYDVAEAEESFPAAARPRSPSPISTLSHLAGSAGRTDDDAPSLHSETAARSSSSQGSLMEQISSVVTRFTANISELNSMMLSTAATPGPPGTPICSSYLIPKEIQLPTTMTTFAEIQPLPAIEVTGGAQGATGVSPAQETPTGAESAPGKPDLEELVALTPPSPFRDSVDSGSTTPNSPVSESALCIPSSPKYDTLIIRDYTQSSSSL

IC50: 555 ± 137 nM
Structure (SMILES): O=C(C#Cc1ccccc1)N1CCN(c2ncccn2)CC1 [Compound AAA(IIa)]
